Results as given in patent US5283331A, “2-halogeno-oxetanocin A and phosphoric ester thereof” (Nippon Kayaku Kabushiki Kaisha, priority 1990, dated 1994).
Values after ≈ are worked out from the molar mass of the structure shown.

What was measured:
[1] = test system: cytomegalovirus (A0169 strain); experiment: Anti-cytomegalovirus activity (plaque reduction in human embryo fibroblast); assay type: cell-based; conditions: for EC50: Human betaherpesvirus 5, 240 h, plaque number, human embryo fibroblast, 10 days, 37° C., read-out: Anti-cytomegalovirus activity ED50 (50% inhibitory value)
Description: Anti-cytomegalovirus activity was measured in the following manner. Thus, a 35 mm dish having a single layer of human embryo fibroblast was infected with 100 PFU (Plaque Forming Units) of cytomegalovirus (A0169 strain). After adsorption for one hour, it was covered with a layer of a medium [0.5% agarose and 2% fetal calf serum] containing a varied concentration of a compound of this invention. After culturing it for 10 days at 37° C. in a 5% (v/v) carbon dioxide incubator, the number of plaques formed was measured.

HIV = experiment: Anti-HIV activity in MT-4 cells (viral antigen expression, fluorescent antibody method); assay type: cell-based
Description: Anti-HIV activity (anti-Human Immunodeficiency Virus activity) was measured in the following manner. Thus, about 100,000 cells/ml of MT-4 cells were placed in a 24-well tray, and 100 μl of a solution containing a predetermined quantity of a compound of this invention was added thereto. After culturing it at 37° C. for 2 hours in a 5% (v/v) carbon dioxide incubator, 2.5×10^5 infection units of HIV was added and cultured for 4 days. Then, a portion of the culture fluid was applied onto a slide glass and immobilized with acetone, after which expression of the viral antigen was tested according to the fluorescent antibody method. As the primary antibody of the fluorescent antibody method, a serum of AIDS patient was used. As the secondary antibody, FITC-labelled anti-human IgG was used.
The test were conducted in a comparative manner, using oxetanocin A as a control substance for each of Experiment 1 and 2.

[2] = Stability to adenosine deaminase (residual percentage by HPLC); assay type: in vitro ADME, young calf; conditions: bovine, pH 6.8, 37° C., 5 units adenosine deaminase; for remaining at 0.5 h: 30 min; for remaining at 1 h: 60 min; for remaining at 2 h: 120 min
Description: (§1) Sample (0.05 ml) was dissolved into 20 ml of 0.1M phosphate buffer (pH 6.8), and 5 units of adenosine deaminase originated from young calf intestinal mucous membrane (SIGMA Product No. A-1155) was added. While keeping the resulting mixture at a constant temperature of 37° C., its 1 ml portion was sampled out at predetermined intervals. After adding 1 μmole of coformycin and 10-hold diluting the mixture with water, residual percentage of the sample was determined by reverse phase high performance liquid chromatography (column: Senshu Pak ODS-5121-N, 6.phi.×150 mm; eluent: 0.1M citrate buffer-acetonitrile-methanol (50:2:1); flow rate: 1.8 ml/min.; detection: UV detector, 254 nm).

adenosine deaminase = experiment: as above; assay type: in vitro ADME, young calf; conditions: 0 min; pH 6.8, 37° C., 5 units adenosine deaminase
Description: as §1

virus = conditions: prior art: Journal of Antibiotics 39, 1623-25 (1986), EP-A2-0182315; cited from earlier work

SMILES | remaining at 10 min [2] [%] | remaining at 0.5 h [2] [%] | remaining at 1 h [2] [%] | remaining at 2 h [2] [%] | Residual percentage (%) (adenosine deaminase) | activity against cytomegalovirus (in words) [1] | EC50 [1] [µg/mL] | activity against HIV (in words) (HIV) | antiviral activity (in words) (virus)
Nc1nc(F)nc2c1ncn2[C@@H]1O[C@H](CO)[C@H]1CO [Compound No. 1, 2-Fluoro-oxetanocin A] | 100 | 100 | 100 | 100 | 100 | excellent activity against cytomegalovirus | 0.3 (≈ 1.11 µM) | excellent activities against HIV | 
Nc1ncnc2c1ncn2[C@@H]1O[C@H](CO)[C@H]1CO [Oxetanocin A] | 85 | 28 | 0 | 0 | 100 |  | 13 (≈ 51.7 µM) |  | 
Nc1ncnc2c1ncn2[C@@H]1O[C@H](CO)[C@H]1CO [Oxetanocin] |  |  |  |  |  |  |  |  | having an antiviral activity

Continued, in another order:

remaining at 10 min [2] [%] | remaining at 0.5 h [2] [%] | remaining at 1 h [2] [%] | remaining at 2 h [2] [%] | Residual percentage (%) (adenosine deaminase) | SMILES | activity against cytomegalovirus (in words) [1] | EC50 [1] [µg/mL] | activity against HIV (in words) (HIV) | antiviral activity (in words) (virus)
100 | 100 | 100 | 100 | 100 | Nc1nc(Cl)nc2c1ncn2[C@@H]1O[C@H](CO)[C@H]1CO [Compound No. 2, 2-Chloro-oxetanocin A] |  |  | excellent activities against HIV | 
100 | 100 | 100 | 100 | 100 | Nc1nc(F)nc2c1ncn2[C@@H]1O[C@H](COP(=O)(O)O)[C@H]1CO [Compound No. 5, 2-Fluoro-oxetanocin A 4'-phosphate] |  |  |  | 
100 | 100 | 100 | 100 | 100 | Nc1nc(Cl)nc2c1ncn2[C@@H]1O[C@H](COP(=O)(O)O)[C@H]1CO [Compound No. 6, 2-Chloro-oxetanocin A 4'-phosphate] |  |  | excellent activities against HIV | 
